# Data reported in US20260157955A1, “DEDIFFERENTIATED PLANT CELLS OF THE GENUS PAEONIA, EXTRACTS THEREOF AND COSMETIC USES THEREOF” (L'OREAL, priority 2021, published 2026).
# Columns and labels:
# Type in all cases: cell-based
# Details in all cases: 0.1 μM, 24 hours, human epidermal keratinocytes, n=2, vs control
# TGM1 = assay: Expression of transcripts in human keratinocytes (RT-qPCR): TGM1
# Procedure: (§1) Human epidermal keratinocytes were seeded in a 24-well culture plate and cultured for 72 hours at 37° C. and 5% CO2 in culture medium with renewal of the culture medium after the first 24 hours. At the end of the incubation, the culture medium was replaced with assay medium (supplemented with 1.5 mM CaCl2) containing starting or reference material (retinoic acid) or not containing same (control), and cells were incubated for another 24 hours. All the experimental conditions were performed in n=2. At the end of the treatment, the cells were washed twice in PBS (without CaCl2, without MgCl2) and RNA extraction was carried out using TriPure Isolation Reagent® according to the manufacturer's recommendations. The relative expression of the selected markers was measured by two-step RT-qPCR. First, reverse transcription was performed with the aid of Transcriptor Reverse Transcriptase (Roche) according to the manufacturer's recommendations. Then, PCR experiments were performed using a LightCycler® 480 real-time PCR system with a SYBR®Green incorporation measurement system (Roche).
# CLDN1 = assay: Expression of transcripts in human keratinocytes (RT-qPCR): CLDN1
# Procedure: as §1
# SPRR1A = assay: Expression of transcripts in human keratinocytes (RT-qPCR): SPRR1A
# Procedure: as §1
# AQP3 = assay: Expression of transcripts in human keratinocytes (RT-qPCR): AQP3
# Procedure: as §1
# CNFN = assay: Expression of transcripts in human keratinocytes (RT-qPCR): CNFN
# Procedure: as §1
smiles,measurement,setting,value
"CC1=C(/C=C/C(C)=C/C=C/C(C)=C/C(=O)O)C(C)(C)CCC1 [Retinoic acid, retinoic acid]",relative expression of TGM1,TGM1,0.49
same,relative expression of CLDN1,CLDN1,0.85
same,relative expression of SPRR1A,SPRR1A,0.26
same,relative expression of AQP3,AQP3,1.04
same,relative expression of CNFN,CNFN,0.46
